Target: T1, recombinant T. circumcincta DPY-31 (Tc rDPY-31) (Teladorsagia circumcincta, UniProt A0A0C5PRQ1)
T1 construct: catalytic astacin domain only (684 bp codon-optimised synthetic gene), His-tagged, pET-28a(+) NdeI/XhoI, E. coli BL21 (DE3), Ni-NTA, 23 kDa; full-length precursor 614 residues
T1 sequence (A0A0C5PRQ1 151-378 limits assumed): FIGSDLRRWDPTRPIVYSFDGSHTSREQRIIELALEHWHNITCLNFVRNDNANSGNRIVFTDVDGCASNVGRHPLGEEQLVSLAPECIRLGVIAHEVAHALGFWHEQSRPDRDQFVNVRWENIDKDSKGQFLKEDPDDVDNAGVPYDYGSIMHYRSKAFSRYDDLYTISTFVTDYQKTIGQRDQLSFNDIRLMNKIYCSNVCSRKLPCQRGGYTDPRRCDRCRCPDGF
Assay: chromogenic protease assay, Suc-Ala-Ala-Ala-pNA, […] nm
Type: biochemical
Conditions: read-out: Effective concentration against T. circumcincta rDPY-31 ^d

For CCCCC[C@H](CC(=O)NO)C(=O)N[C@H](C(=O)N1CCC[C@H]1CO)C(C)C [Actinonin], the IC50 was 50 µM.

Source: PMC4406453, “A highly conserved, inhibitable astacin metalloprotease from Teladorsagia circumcincta is required for cuticle formation and nematode development^” (International Journal for Parasitology, 2015)
